Positions of bridges follow the written chain, without caps; N, C: chain ends. Non-standard residues stand in square brackets, D forms with d. Residues, ends and D or L forms follow the SMILES beside them. Hyp = O=C(O)[C@@H]1C[C@@H](O)CN1; Nle = CCCC[C@H](N)C(=O)O; Orn = NCCC[C@H](N)C(=O)O
Legend:
[1] = biological target: α7 nAChR (Homo sapiens, UniProt P36544); test: BLI (biolayer interferometry) affinity of peptides to α7 nAChR; type: binding; design: inferred from the 'similar' procedure on NTA sensors; conditions: NTA sensor, α7 nAChR 20 µg/mL, peptide 1.372-1000 nM in PBS
Procedure, shortened: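 Target protein immobilised on NTA biosensors from PBS at 5 µg/mL (α9) or 20 µg/mL (α7). Peptides run in PBS as threefold series from 1000 nM to 1.372 nM with a PBS blank, 5-minute association and 5-minute dissociation; KD from fitted ka and kd.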

[2] = test system: mouse diabetic neuropathic pain model; test: Mouse diabetic neuropathic pain model (Example 10); type: in vivo; conditions: 2 mg/kg s.c. (AJ003; AJ003-36 medium dose)
Description: Except for the control group, the remaining male C57 mice (Hangzhou Ziyuan Experimental Animal Technology Co., Ltd.) were continuously fed a high-sugar, high-fat diet for approximately ten weeks. For the model group, mice were fasted overnight, and streptozotocin (STZ) (Sann Chemical Technology (Shanghai) Co., Ltd.) was dissolved in sodium citrate-citric acid buffer solution and intraperitoneally injected at a dose of 70 mg/kg. About two weeks after STZ injection, the mechanical pain threshold of mice was measured. Mice were placed on a perforated wire mesh for adaptation, and the plantar surface of the right hind paw was vertically stimulated with a blunt needle. Pain threshold data were collected using a biosignal acquisition system. Each mouse was measured three times, and the average value was calculated. Mice were then randomly assigned to groups based on their pain thresholds for drug administration.
Day 1 of dosing: Drug administration was performed according to Table 9. Mechanical pain thresholds of the plantar surface were measured at 0 h, 2 h, 4 h, 6 h, and 8 h after administration.

[3] = test system: rat paclitaxel-induced chronic chemotherapy pain model; test: Rat paclitaxel chemotherapy pain model, different doses (Example 6); type: in vivo; conditions: for analgesic activity compared with the model group (mechanical pain threshold): 1 mg/kg s.c., five rounds of treatment
Description: Male SPF (Specific Pathogen Free) SD rats weighing 180-200 g (Shanghai Institute of Planned Parenthood Research, Experimental Animal Department) were purchased and allowed to acclimate for approximately one week. On the day of model induction, rats were weighed, and baseline mechanical pain thresholds were measured. Animals with large differences in body weight or pain threshold were excluded, and the remaining rats were subjected to the experimental protocol. Paclitaxel powder was dissolved in olive oil to 1 mg/mL. Each rat received an intraperitoneal injection of 2 mg/kg per dose. Four injections were administered on days 1, 3, 5, and 7. Rats in the negative control or vehicle control group received injections of the solvent used to dissolve paclitaxel. […] Starting from day 15 after model induction, drugs were administered daily for consecutive days. On days 1, 4, 7, 12, and 14 of treatment, mechanical pain thresholds of the right hind paw at the corresponding time were measured at 2 h, 4 h, 6 h, and 8 h after dosing using a blunt probe. […]. […] Table 5 Dosing Scheme for Screening Analgesic Activity of Selected Modified Peptides at Different Doses in the Paclitaxel Chemotherapy Pain Model

[4] = test system: rat paclitaxel-induced chronic chemotherapy pain model; test: Rat paclitaxel chemotherapy pain model, same dose (Example 5); type: in vivo; conditions: for analgesic activity compared with the model group (mechanical pain threshold): four rounds of treatment
Description: Male SPF (Specific Pathogen Free) SD rats weighing 180-200 g (Shanghai Institute of Planned Parenthood Research, Experimental Animal Department) were used. On the day of model induction, rats were weighed, and baseline mechanical pain thresholds were measured. Animals with large differences in body weight or pain threshold were excluded, and the remaining rats were subjected to the experimental protocol. Paclitaxel powder was dissolved in olive oil to 1 mg/mL. Each rat received an intraperitoneal injection of 2 mg/kg per dose. Four injections were administered on days 1, 3, 5, and 7. Rats in the negative control or vehicle control group received injections of the solvent used to dissolve paclitaxel. […] The blank group in Table 4 represents rats without pain modeling, and the model group represents rats with pain modeling but no drug treatment. On days 1, 3, 5, and 12, drugs were administered at fixed times. On days 1, 3, and 5, mechanical pain thresholds of the right hind paw at the corresponding time were measured at 1 h, 2.5 h, 4 h, and 5.5 h after dosing using a blunt probe. On day 12, mechanical pain thresholds were measured at 4 h and 7 h after dosing. […] AJ003-36 and AJ003-40 were thus identified as candidate molecules for further study. Paclitaxel is a widely used small-molecule chemotherapy drug that, while effective against tumors, can induce neuropathic pain in many cancer patients due to neurotoxicity. The chronic chemotherapy pain model induced in male SD rats via multiple low-dose intraperitoneal injections of paclitaxel simulates clinical chemotherapy-induced neuropathic pain. Using this model, the analgesic effects of five modified peptides, the parent peptide AJ003, and the positive control pregabalin were evaluated. […] Table 4 Dosing Scheme for Screening Analgesic Activity of Selected Modified Peptides at the Same Dose in the Paclitaxel Chemotherapy Pain Model

| SMILES | Kd [1] [nM] | analgesic activity compared with the model group (mechanical pain threshold) ([2]; Day 1 of dosing, 2 h and 4 h) | analgesic activity compared with the model group (mechanical pain threshold) ([2]; Day 1 of dosing, 6 h and 8 h) | analgesic activity compared with the model group (mechanical pain threshold) ([2]; Day 4 of dosing, 2 h and 4 h) | analgesic activity compared with the model group (mechanical pain threshold) ([2]; Day 4 of dosing, 6 h and 8 h) | analgesic activity compared with the model group (mechanical pain threshold) ([2]; Day 8 of dosing, 2 h and 4 h) | analgesic activity compared with the model group (mechanical pain threshold) ([2]; Day 8 of dosing, 6 h and 8 h) | analgesic activity compared with the model group (mechanical pain threshold) ([2]; Day 14 of dosing, 2 h and 4 h) | analgesic activity compared with the model group (mechanical pain threshold) ([2]; Day 14 of dosing, 6 h and 8 h) | analgesic activity compared with the model group (mechanical pain threshold) ([3]; beyond 4 h after dosing) | analgesic activity compared with the model group (mechanical pain threshold) ([3]; within 4 h after dosing) | analgesic activity compared with the model group (mechanical pain threshold) ([4]; 1 mg/kg s.c., beyond 4 h after dosing) | analgesic activity compared with the model group (mechanical pain threshold) ([4]; 1 mg/kg s.c., within 4 h after dosing) | analgesic activity compared with the positive control pregabalin ([3]; high dose 1.5 mg/kg s.c. vs pregabalin 30 mg/kg oral gavage) | analgesic effect compared with the model group (mechanical pain threshold) ([3]; high dose 1.5 mg/kg s.c., 8 h after dosing) | analgesic activity compared with the parent peptide AJ003 ([3]; low dose 0.5 mg/kg s.c. vs AJ003 1 mg/kg s.c.) | ranking among the five candidate modified peptides ([4]; 1 mg/kg s.c.) | analgesic activity (mechanical pain threshold) ([4]; 1 mg/kg s.c., day 12, 7 h after dosing) | analgesic efficacy compared with the positive control pregabalin ([4]; peptide 1 mg/kg s.c. vs pregabalin 30 mg/kg oral gavage, overall) |
| --- | --- | --- | --- | --- | --- | --- | --- | --- | --- | --- | --- | --- | --- | --- | --- | --- | --- | --- | --- |
| CC(C)C[C@H](NC(=O)[C@@H](NC(=O)[C@H]1CSSC[C@H](NC(=O)[C@H](CO)NC(=O)CN)C(=O)N[C@@H](CO)C(=O)N[C@@H]([C@@H](C)O)C(=O)N2CCC[C@H]2C(=O)N2CCC[C@H]2C(=O)N[C@@H](CO)C(=O)N1)C(C)C)C(=O)N[C@@H](Cc1ccc(O)cc1)C(=O)N[C@@H](CO)C(=O)O [AJ003, GSCSTPPS-(D-Cys)-VLYS (disulfide bond between positions 3 and 9)] (H-GSCSTPPS[dC]VLYS-OH; disulfide 3-9) | 223 | significant analgesic activity | did not show significant differences | significant analgesic activity | no significant difference | significant analgesic activity | no significant difference | significant analgesic activity | did not show significant differences | no significant effect | significant analgesic activity | no significant analgesic effect | significant analgesic activity |  |  |  |  |  |  |
| CCCC[C@H](NC(=O)[C@@H](NC(=O)[C@H]1CSSC[C@H](NC(=O)[C@H](CO)NC(=O)CN)C(=O)N[C@@H](CO)C(=O)N[C@H]([C@H](C)O)C(=O)N2C[C@H](O)C[C@H]2C(=O)N2C[C@H](O)C[C@H]2C(=O)N[C@@H](CO)C(=O)N1)C(C)C)C(=O)N[C@@H](Cc1c[nH]c2ccccc12)C(=O)N[C@@H](CCCN)C(N)=O [AJ003-40, GSCS-(D-Thr)-Hyp-Hyp-S-(D-Cys)-V-Nle-W-Orn-NH2 (3,9 disulfide bond)] (H-GSCS[dT][Hyp][Hyp]S[dC]V[Nle]W[Orn]-NH2; disulfide 3-9) | 46.5 |  |  |  |  |  |  |  |  |  |  |  |  | slightly superior to the positive control pregabalin | remained significant | comparable to that of AJ003 at 1 mg/kg | top three analgesic candidates | prolonged analgesic activity lasting up to 7 h | comparable in analgesic efficacy to pregabalin |
